Measurements: patent US8906829B2, “Synergistic algicidal compositions including hydrazone derivatives and copper” (Dow AgroSciences LLC, priority 2010, dated 2014)

Key:
[1] = tested on: Synechocystis sp. strain 6803; assay: Effect of copper on activity of hydrazones: in vitro growth inhibition of Synechocystis in BG-11 Cu minus / Cu plus medium (Example 11); type: cell-based; conditions: 72 h; for % Inhn. Plus Copper Observed: BG-11 Cu plus medium
Procedure: In vitro toxicity assays against the cyanobacterium (blue-green alga) Synechocystis sp. strain 6803 were conducted using BG-11 medium except that copper micronutrient, normally included as CuSO4.5H2O, was omitted. The medium, termed BG-11 Cu minus, was prepared by dissolving 1.5 g NaNO3, 40 mg K2HPO4, 6 mg citric acid, 1 mg Na2EDTA and 20 mg Na2CO3 in 1 liter of milli Q water and treating the solution with 0.5 g Chelex 100 resin (Bio-Rad Analytical grade, 50-100 mesh, sodium form, cat#142-2822) by stifling at room temperature for 1 h. 900 mL were decanted and 67.5 mg MgSO4.7H2O, 32.4 mg […], 5.4 mg ferric ammonium citrate and 0.9 mL trace metal mix A5 without copper (2.86 g H3BO3, 1.81 g MnCl2.4H2O, 222 mg ZnSO4.7H2O, 390 mg Na2MoO4.2H2O and Co(NO3)2.6H2O in 1 L Milli Q water) was added. The pH was adjusted to 7.1 and the medium was filter-sterilized. Medium containing copper (BG-11 Cu plus) was prepared by adding CuCl2.2H2O to the BG-11 Cu minus medium at 0.2 μM. Test compounds were dissolved in dimethylsulfoxide (DMSO) at 2 mg/mL then appropriate dilutions in BG-11 Cu minus and BG-11 Cu plus media were prepared in sterilized microcentrifuge tubes. 100 μL aliquots were dispensed into flat-bottomed 96-well microtiter plates. Synechocystis was maintained under 24 h of light on BG-11 agar plates at 27° C. A loopful of cells was added to 50 mL of BG-11 Cu minus growth medium and the culture was incubated with shaking at 200 rpm at 27° C. for 24 h. The culture (10 to 20 mL aliquot) was centrifuged in a bench centrifuge at 2400 rpm for 2 min. The resulting cell pellet was resuspended in 5 mL sterile milli Q water (which had been treated with Chelex 100 resin using 0.5 g resin per liter of water by stirring at room temperature for 1 h), and recentrifuged. The cells were resuspended in BG-11 Cu minus medium, and the suspension adjusted to 4×10^5 spores per mL. Microtiter plates containing compounds as described above were inoculated with 100 μL of this cell suspension and the plates incubated at 27° C. for 72 h before assessing algal growth by measuring light scattering in a NepheloStar plate reader. Growth inhibition was determined by comparing growth in the presence of test compound with growth in control wells lacking test compound. Results for growth inhibition by test compounds in BG-11 Cu plus medium (% Inhn Plus Copper Observed) were compared with predicted values (% Inhn Plus Copper Predicted) that were calculated using the formula set forth by S. R. Colby in Weeds 1967, 15, 20-22 based on-results obtained for the same compounds in BG-11 Cu minus medium (% Inhn Minus Copper Observed) and the inhibition attributed to copper chloride alone, as determined by comparing growth in copper-minus and copper-plus media without any test compound across experiments. Results illustrate that hydrazones and copper produce a synergistic algicidal effect towards Synechocystis.

C. reinhardtii CC-1928 = assay: Effect of copper on activity of hydrazones: in vitro growth inhibition of C. reinhardtii in TAP Cu minus / TAP Cu plus medium (Example 10); type: cell-based, Chlamydomonas reinhardtii; conditions: test compound 1 μg/mL, 48 h; for inhibition of growth at 1 µg/mL: Chlamydomonas reinhardtii, TAP Cu minus medium, read-out: % Inhn. Minus Copper Observed; for % Inhn. Plus Copper Observed: TAP Cu plus medium (CuCl2)
Procedure: In vitro toxicity assays against C. reinhardtii CC-1928 (wild type mt+137c green in dark subclone) obtained from the Chlamydomonas Resource Center at Duke University were conducted using TAP liquid growth medium described by Gorman and Levine Proc. Natl. Acad. Sci. USA 1965, 54, 1665-1669 except that CuSO4.5H2O, normally included as a component of Hutner's trace element stock solution (Hutner et al. Proc. Am. Philos. Soc. 1950, 94, 152-170), was omitted. The TAP medium lacking Cu (TAP Cu minus) was prepared by adding 400 mg NH4Cl, 10 mL of 100× Tris-Acetate (242 g Tris-base and 100 mL glacial acetic acid in 1000 mL milli Q water), and 8.3 mL of 120.5× phosphate buffer (14.34 g K2HPO4 and 7.26 g KH2PO4 in 1000 mL milli Q water) to milli Q water to make a total volume of 1 liter. The medium was treated with 0.5 g Chelex 100 resin (Bio-Rad Analytical grade, 50-100 mesh, sodium form, cat#142-2822) by stirring at room temperature for 1 hour. 900 mL were decanted and 45.9 mg of CaCl2.2H2O, 90 mg of MgSO4.7H2O and 0.9 mL Hutner's trace elements lacking CuSO4.5H2O were added and the solution was filter-sterilized. Medium containing copper (TAP Cu plus) was prepared by adding CuCl2.2H2O to the TAP Cu minus medium at 20 μM. Test compounds were dissolved in dimethylsulfoxide (DMSO) at 2 mg/mL then dilutions in TAP Cu minus and TAP Cu plus media were prepared in sterilized microcentrifuge tubes at 2 μg/mL. 100 μL aliquots of diluted compound were dispensed into flat-bottomed 96-well microtiter plates. C. reinhardtii was maintained under 12 h of light on TAP agar plates at 18° C. A loopful of cells was added to 50 mL of TAP Cu minus medium and the culture incubated with shaking at 200 rpm at 27° C. for 24 h. The culture (10 to 20 mL aliquot) was centrifuged in a bench centrifuge at 2000 rpm for 2 min. The resulting cell pellet was resuspended in 5 mL sterile milli Q water (which had been treated with Chelex 100 resin using 0.5 g resin per liter of water by stirring at room temperature for 1 h), and recentrifuged. The cells were resuspended in TAP Cu minus medium, and the suspension adjusted to 2×10^5 spores per mL. Microtiter plates containing compounds as described above were inoculated with 100 μL of this cell suspension and the plates incubated at 27° C. for 48 h before assessing algal growth by measuring light scattering in a NepheloStar plate-reader. Growth inhibition was determined by comparing growth in the presence of test compound with growth in control wells lacking test compound. Results for growth inhibition by test compounds at 1 μg/mL in TAP Cu plus medium (% Inhn Plus Copper Observed) were compared with predicted values (% Inhn Plus Copper Predicted) that were calculated using the formula set forth by S. R. Colby in Weeds 1967, 15, 20-22 based on results obtained for the same compounds in TAP Cu minus medium (% Inhn Minus Copper Observed). […] Results illustrate that hydrazones and copper produce a synergistic algicidal effect towards C. reinhardtii.

C. reinhardtii = assay: Growth inhibition of C. reinhardtii by hydrazones and isolated metal-hydrazone complexes, TAP Cu minus medium (Example 12); type: cell-based, Chlamydomonas reinhardtii; conditions: for inhibition of growth at 1 µg/mL: Chlamydomonas reinhardtii, parent hydrazone 1 μg/mL, read-out: Hydrazone % Inhn.
Procedure: In vitro toxicity assays against C. reinhardtii CC-1928 (wild type mt+137c green in dark subclone) obtained from the Chlamydomonas Resource Center at Duke University were conducted using TAP liquid growth medium described by Gorman and Levine Proc. Natl. Acad. Sci. USA 1965, 54, 1665-1669 except that CuSO4.5H2O, normally included as a component of Hutner's trace element stock solution (Hutner et al. Proc. Am. Philos. Soc. 1950, 94, 152-170), was omitted. The TAP medium lacking Cu (TAP Cu minus) was prepared by adding 400 mg NH4Cl, 10 mL of 100× Tris-Acetate (242 g Tris-base and 100 mL glacial acetic acid in 1000 mL milli Q water), and 8.3 mL of 120.5× phosphate buffer (14.34 g K2HPO4 and 7.26 g KH2PO4 in 1000 mL milli Q water) to milli Q water to make a total volume of 1 liter. The medium was treated with 0.5 g Chelex 100 resin (Bio-Rad Analytical grade, 50-100 mesh, sodium form, cat#142-2822) by stirring at room temperature for 1 hour. 900 mL were decanted and 45.9 mg of CaCl2.2H2O, 90 mg of MgSO4.7H2O and 0.9 mL Hutner's trace elements lacking CuSO4.5H2O were added and the solution was filter-sterilized. Medium containing copper (TAP Cu plus) was prepared by adding CuCl2.2H2O to the TAP Cu minus medium at 20 μM. Test compounds were dissolved in dimethylsulfoxide (DMSO) at 2 mg/mL then dilutions in TAP Cu minus and TAP Cu plus media were prepared in sterilized microcentrifuge tubes at 2 μg/mL. 100 μL aliquots of diluted compound were dispensed into flat-bottomed 96-well microtiter plates. C. reinhardtii was maintained under 12 h of light on TAP agar plates at 18° C. A loopful of cells was added to 50 mL of TAP Cu minus medium and the culture incubated with shaking at 200 rpm at 27° C. for 24 h. The culture (10 to 20 mL aliquot) was centrifuged in a bench centrifuge at 2000 rpm for 2 min. The resulting cell pellet was resuspended in 5 mL sterile milli Q water (which had been treated with Chelex 100 resin using 0.5 g resin per liter of water by stirring at room temperature for 1 h), and recentrifuged. The cells were resuspended in TAP Cu minus medium, and the suspension adjusted to 2×10^5 spores per mL. Microtiter plates containing compounds as described above were inoculated with 100 μL of this cell suspension and the plates incubated at 27° C. for 48 h before assessing algal growth by measuring light scattering in a NepheloStar plate-reader. Growth inhibition was determined by comparing growth in the presence of test compound with growth in control wells lacking test compound. Hydrazones and their isolated metal complexes were compared with respect to their in vitro activity toward C. reinhardtii and the cyanobacterium (blue-green alga) Synechocystis sp. strain 6803. Metal complexes of hydrazones were prepared by precipitation from ethanol with various metal salts at 1:1, 2:1 or 3:1 molar ratios, as described in general by Ainscough, Brodie, Dobbs, Ranford, and Waters (Inorganica Chimica Acta 1998, 267, 27-38, which is expressly incorporated by reference herein). In vitro assays against C. reinhardtii were conducted as described in Example 10 using TAP Cu minus medium. Growth inhibition was determined by comparing growth in the presence of test compound with growth in control wells lacking test compound. Results for growth inhibition of C. reinhardtii by hydrazones and corresponding isolated metal complexes (each at 1 μg/mL) are shown in Table 6.

[2] = Synechocystis, Test Concn. 0.05 μg/mL, BG-11 Cu minus medium, read-out: % Inhn. Minus Copper Observed

| Compound | inhibition of growth at 0.05 µg/mL [1, 2] | % Inhn. Plus Copper Observed ([1]; Test Concn. 0.05 μg/mL) | melting point | inhibition of growth at 1 µg/mL (C. reinhardtii CC-1928) | % Inhn. Plus Copper Observed (C. reinhardtii CC-1928) | inhibition of growth at 0.025 µg/mL ([1]; Synechocystis, Test Concn. 0.025 μg/mL, BG-11 Cu minus medium, read-out: % Inhn. Minus Copper Observed) | % Inhn. Plus Copper Observed ([1]; Test Concn. 0.025 μg/mL) | inhibition of growth at 0.0125 µg/mL ([1]; Synechocystis, Test Concn. 0.0125 μg/mL, BG-11 Cu minus medium, read-out: % Inhn. Minus Copper Observed) | % Inhn. Plus Copper Observed ([1]; Test Concn. 0.0125 μg/mL) | inhibition of growth at 1 µg/mL (C. reinhardtii) | Complex % Inhn. (C. reinhardtii; isolated metal complex 1 μg/mL) |
| --- | --- | --- | --- | --- | --- | --- | --- | --- | --- | --- | --- |
| Cc1ccc(C(=O)N/N=C/c2cccc(Cl)c2O)c(O)c1 [Compound 55] | 68% | 92% | 258 to 266 °C | -3% | 97% |  |  |  |  |  |  |
| O=C(N/N=C/c1c(C(F)(F)F)ccc(Cl)c1O)c1ccccc1O [Compound 57] | 61% | 92% | 278 to 280 °C | -11% | 95% |  |  |  |  |  |  |
| C/C(=N\NC(=O)c1c(C)cccc1O)c1cc(Cl)cc(Cl)c1O [Compound 58] |  |  | 245 °C | 3% | 93% | 46% | 64% |  |  |  |  |
| C/C(=N\NC(=O)c1ccc(C)cc1)c1cccc(Cl)c1O [Compound 59] | 1% | 93% | 195 to 200 °C | -6% | 92% |  |  |  |  |  |  |
| C/C(=N\NC(=O)c1ccc(Br)cc1)c1cccc([N+](=O)[O-])c1O [Compound 60] |  |  | 244 to 252 °C | -50% | 89% |  |  | 33% | 50% |  |  |
| C/C(=N\NC(=O)c1ccccc1)c1cc(Br)cc(Br)c1O [Compound 61] | 61% | 96% | 242 to 245 °C | -56% | 94% |  |  |  |  |  |  |
| C/C(=N\NC(=O)c1ccc(Cl)cc1)c1cc(F)cc(F)c1O [Compound 62] | 60% | 95% | 276 to 280 °C | 0% | 95% |  |  |  |  |  |  |
| O=C(N/N=C/c1cc(Cl)cc(Cl)c1O)c1ccc(Cl)cc1 [Compound 64] |  |  |  | -5% | 97% |  |  |  |  | -5% |  |
| C/C(=N\NC(=O)c1cccc(Cl)c1)c1cc(Cl)cc(Cl)c1O [Compound 65] |  |  | 245 to 246 °C | -5% | 97% |  |  |  |  | -5% |  |
| O=C(N/N=C/c1cc(Cl)cc(C(F)(F)F)c1O)c1ccc(Cl)cc1 [Compound 66] |  |  | 232 to 234 °C | -4% | 97% |  |  |  |  | -4% |  |
| C/C(=N\NC(=O)c1cccc(C)c1)c1cc(Cl)cc(Cl)c1O.[Cl-].[Cl-].[Cu+2] [Compound 90] |  |  |  |  |  |  |  |  |  |  | 49% |
